Results as given in ChEMBL document CHEMBL1147852, “Synthesis and biology of bis-xylosylated dihydroxynaphthalenes” (2007).

Tested on: T-24
Assay: Antiproliferative activity against human T24 cells
Format: functional
Conditions: read-out: ED50 (the source's name)

SMILES | EC50 [µM]
O[C@@H]1[C@@H](O)[C@H](Oc2cccc3c(O[C@@H]4OC[C@@H](O)[C@H](O)[C@H]4O)cccc23)OC[C@H]1O | 400
O[C@@H]1[C@@H](Oc2ccc3ccc(O[C@@H]4OC[C@@H](O)[C@H](O)[C@H]4O)cc3c2)OC[C@H](O)[C@H]1O | 450
O[C@@H]1[C@@H](O)[C@H](Oc2ccc3cc(O[C@@H]4OC[C@@H](O)[C@H](O)[C@H]4O)ccc3c2)OC[C@H]1O | > 400
O[C@@H]1[C@@H](O)[C@H](Oc2cc(O[C@@H]3OC[C@@H](O)[C@H](O)[C@H]3O)c3ccccc3c2)OC[C@H]1O | > 400
O[C@@H]1[C@@H](O)[C@H](Oc2ccc(O[C@@H]3OC[C@@H](O)[C@H](O)[C@H]3O)c3ccccc23)OC[C@H]1O | 400
